Assays:
[1] = test system: HeLa cells; assay: Proliferation assay, co-incubation with Daunorubicin; assay type: cell-based; conditions: 2 h, washout, 72 h growth, resazurin; for Effect on cytotoxicity of Dau (co-incubation): 1 µM peptide with 100 nM or 1 µM Daunorubicin
Method: In total, 3000 HeLa cells per well were seeded onto 96-well plates (Sarstedt, Nümbrecht, Germany). When a confluency of 30–40% was reached, medium was removed and cells were incubated with peptides and Daunorubicin at different concentrations (1 µM peptide concentration and 100 nM or 1 µM Daunorubicin in serum-free medium) for 2 h at 37 °C. Afterwards, a washout was performed, and cells were washed once with 100 µL of serum-free medium. Then, 200 µL of medium with serum were added and cells were grown for 72 h at 37 °C. As a positive control, cells were treated with 70% EtOH for 10 min. Afterwards, cells were covered with 10% (v/v) resazurin (Sigma-Aldrich, Merck group: Darmstadt, Germany) in serum-free medium for 1.5 h at 37 °C. The cell viability of treated cells was determined relative to that of untreated cells by measurement of the resorufin product at 595 nm (λex = 550 nm) on a Tecan infinite M200 plate reader (Tecan Group AG, Männedorf, Switzerland). Viability was calculated from the fluorescence values of treated cells in relation to untreated cells.

[2] = test system: human red blood cells; assay: Hemolysis assay; assay type: cell-based; conditions: human RBCs 5% (v/v in PBS), 37 °C, up to 25 µM peptide, absorption at 560 nm, normalized to Triton-x-100 control, triplicate, n = 2
Method: Human red blood cells were washed five times with PBS (4 °C, 3000× g, 5 min) and diluted to 5% (v/v in PBS). In total, 100 µL of this solution were transferred into a fresh 96-well plate. In total, 50 µL of peptide solution were added and gently resuspended. Red blood cells were incubated for either 1 or 24 h at 37 °C and 5% CO2, respectively. In total, 50 µL of 10% Triton-x-100 were added 10 min prior to the end of the incubation time and served as a positive control. After incubation, cells were centrifuged (r.t., 2500× g, 3 min). The supernatant was carefully transferred into a fresh 96-well plate and the absorption at 560 nm was measured on a Tecan infinite M200 plate reader (Tecan Group AG, Männedorf, Switzerland). The measured absorption referred to the hemoglobin concentration.
Next, we incubated human red blood cells (RBCs) with different concentrations of CB-sC18 conjugates at 37 °C for 1 or 24 h, respectively. Since their cell membranes are mainly composed of neutral lipids, RBCs serve as an excellent biological model for the lytic activity of a peptide. […] For sC18, this agreed with the detected low activity when in contact with zwitterionic LUVs. […] The same activity profile was observed when incubating peptide conjugates with RBCs for only one hour (Figure S30), whereas the effects started at concentrations higher than 5 µM. […]

[3] = test system: HeLa cells; assay: Transfection with mCherry plasmid; assay type: cell-based; conditions: peptide:plasmid 3:1 (250 ng plasmid), 1 µM peptide, 2 h, inspected 72 h after transfection, fluorescence microscopy
Method: HeLa cells were seeded into 8-well plates (ibidi, Gräfelfing, Germany, 8000 cells per well, respectively) and grown to 30–40% confluency. Peptides and mCherry plasmid were co-incubated for 1 h at 37 °C at a ratio of 3:1 in serum-free medium (mCherry plasmid: 250 ng). Afterwards, the medium was removed, and the solution was added to the cells. Additional serum-free medium was added to ensure a final peptide concentration of 1 µM. Cells were incubated for 2 h with the peptides and peptide/plasmid solution at 37 °C, respectively. As a positive control, Lipofectamine 2000 (Invitrogen, Thermo Scientific, Waltham, MA, USA) was used and as a negative control, cells were treated with plasmid only. Afterwards, a washout was performed, and cells were washed once with 150 µL of serum-free medium. In total, 300 µL of medium with serum were added and cells were grown for 72 h at 37 °C. Ten minutes prior to microscopic analysis, 0.6 µL of Hoechst33342 were added. Then, cells were washed twice with 150 µL of serum-free medium. In total, 300 µL of serum-supplemented medium were added and cells analyzed using a BZ-X800E microscope (Keyence, Osaka, Japan).

[4] = test system: HeLa cells; assay: Cellular uptake by flow cytometry; assay type: cell-based; conditions: 1 µM CF-labeled peptide, serum-free medium, 37 °C; for Cellular uptake into HeLa cells, 30 min: triplicate, n = 3
Method: HeLa cells were seeded onto 24-well plates (Sarstedt, Nümbrecht, Germany, 100,000 cells per well, respectively). After reaching 80–90% confluency, medium was removed, and cells were incubated with 1 µM CF-labeled peptide solution in serum-free medium for either 30 min or 2 h at 37 °C. The peptide solution was removed, cells were washed twice with PBS, and trypsinized for 5 min. Detached cells were resuspended in full medium (phenol red free) and afterwards analyzed using a guava easycyte HT flow cytometer (Merck, Darmstadt, Germany).

[5] = test system: HeLa cells; assay: Cell viability assay (resazurin); assay type: cell-based; conditions: 37 °C, serum-free medium, 125 nM–100 µM, relative to untreated cells
Method: In total, 17.000 HeLa cells per well were seeded onto 96-well plates (Sarstedt, Nümbrecht, Germany). After confluency of 80–90% was reached, the growth medium was removed, and cells were incubated with 100 µL of peptide solution of different concentrations (125 nM–100 μM in serum-free medium) for 24 h at 37 °C. For a positive control, cells were treated with 70% EtOH for 10 min. Cells were washed with serum-free medium and incubated with 10% (v/v) resazurin (Sigma-Aldrich, Merck group: Darmstadt, Germany) in serum-free medium for 1.5 h at 37 °C. Cell viability was determined by measurement of the resorufin product at 595 nm (λex = 550 nm) on a Tecan infinite M200 plate reader (Tecan Group AG, Männedorf, Switzerland). Viability was calculated from the fluorescence values of treated cells in relation to untreated cells.

[6] = Circular dichroism spectroscopy (alpha-helical content, R-value); assay type: physicochemical; conditions: for % of alpha helix, 50% TFE / % of alpha helix, Phosphate Buffer: CD, calculated per ref 31; for % of alpha helix, 50% TFE: 20 µM peptide in 10 mM phosphate buffer (pH 7.0) with 50% TFE (v/v); for R-value, 50% TFE: 20 µM peptide in 10 mM phosphate buffer (pH 7.0) with 50% TFE
Method: Conjugates were dissolved in 10 mM phosphate buffer (pH 7.0), either alone or supplemented with 50% TFE (v/v), to a final concentration of 20 µM. CD spectra of all conjugates were recorded from 180–260 nm (0.5 nm intervals) on a J-715 spectropolarimeter (JASCO, Pfungstadt, Germany) in an N2 atmosphere.
To find out more, we performed CD spectroscopy for all peptides solved either in phosphate buffer or in phosphate buffer supplemented with trifluoroethanol (TFE), respectively. All conjugates and sC18 adopted an alpha-helix, when present in phosphate buffer with TFE (Figure S20). On the other hand, when CB-conjugates were solved in phosphate buffer only (Figure 1C), some of them directly formed distinct secondary structures. […] Taking this observation into account, we concluded that the number of CB moieties actually promoted the formation of alpha-helical structures. This effect might be further explained by the helical wheel projection of each conjugate showing that the hydrophobic face of the peptide was clearly enlarged when three or more CB units were attached (see Figure S21). […]

[7] = Critical micelle concentration (CMC) determination by UV-VIS; assay type: physicochemical; conditions: peptide in water, 1–200 µM; UV absorbance at 255 nm plotted against logarithm of peptide concentration, intersection point of two lines
Method: Peptide conjugates were dissolved in water and different concentrations (1–200 µM) were prepared. UV-VIS spectra ranging from 200–700 nm were recorded using a 1 cm path length quartz cuvette in a Spectroquant Pharo 300 photometer (Merck, Darmstadt, Germany). The absorbance at 255 nm was plotted against the logarithm of the peptide concentration. The intersection point of two lines was determined as CMC.
Since this effect was obviously dependent on the hydrophobic nature of the conjugates, we were then interested in whether they would also self-assemble and form nanostructures, such as micelles or fibrils. An easy to apply and fast method makes use of changes in spectroscopic properties associated with micelle formation. For this, one measures the UV absorbance at a specific wavelength as a function of the concentration. Because aggregates like micelles and free molecule species contribute to a different extent to the absorbed UV light, an abrupt change of the slope occurs above a certain point. The corresponding concentration is defined as the critical micelle concentration (CMC). We measured the UV-VIS spectra of all CB-sC18 conjugates and observed for all an additional concentration-dependent maximum at 255 nm (Figure 1A,B and Table 2), whereas this maximum was not detected for meta-carborane-1-carboxylic acid (Figure S14) or sC18 alone (Figure S15).
Thus, we hypothesized this maximum as evidence for a possible self-assembly, and by plotting the absorbance at 255 nm against the logarithm of the peptide concentration, we assigned the intersection point as CMC.

[8] = CF-leakage assay, negatively charged LUVs; conditions: 1 µM peptide, 25 °C, 90 min; fluorescence, normalized to Triton x-100; duplicate, n = 2
Method: (§1) Large unilamellar vesicles (LUVs) were prepared by dissolving different lipids in CHCl3, to reach the desired compositions (lipids were purchased from Avanti Polar Lipids, Inc., Alabaster, AL, USA). To remove the solvent, the mixture was placed into a round-bottomed flask on ice and the solvent was evaporated under reduced pressure for 20 min at 40 °C and afterwards under vacuum for another 5 min. The dried lipid film was then hydrated with HKS buffer (25 mM HEPES, 150 mM KCl, pH 7.4, 10% sucrose (w/v)), supplemented with 100 mM 5(6)-carboxyfluorescein (CF), and homogenized for 5 min at 45 °C to form liposomes (final concentration: 8 mM). The resulting multilamellar vesicle dispersion underwent 10 freeze/thawing cycles and was passed 21 times through a mini extruder (0.4 µm polycarbonate treck-etch membrane; Avanti Polar Lipids, Inc., Alabaster, AL, USA). External CF was removed by size exclusion chromatography (PD10 column, GE Healthcare, Chicago, IL, USA). Peptides were added to the LUVs and the CF release was monitored by measuring the increased fluorescence intensity on a plate reader (Biotek, Winooski, VT, USA). […]
(§2) Our results thus far inspired us to investigate how the novel CB-conjugates would perform in a lipid environment. […] Both lipid systems were additionally loaded with CF in order to monitor membrane leakage via fluorescence dye outflow.

[9] = CF-leakage assay, zwitterionic LUVs; conditions: 1 µM peptide, 25 °C, 90 min; fluorescence, normalized to Triton x-100; duplicate, n = 2
Method: as §1, §2

[10] = 20 µM peptide in 10 mM phosphate buffer (pH 7.0)
[11] = ratio between the molar ellipticity values at 222 and 208 nm

## K-GLRKRLRKFRNKIKEK [CB1-sC18, sC18 conjugate bearing one meta-carborane (CB) cluster]
[1]
  Effect on cytotoxicity of Dau (co-incubation): did not alter the cytotoxicity of Dau
[2]
  Hemolytic activity towards RBCs, 24 h: did not exhibit any effect
[3]
  mCherry pDNA transfection (red fluorescent signal): only a weak red signal
[4]
  Cellular uptake into HeLa cells, 30 min: internalized nearly to the same extent
[5]
  Cytotoxicity towards HeLa cells, 24 h: lowest cytotoxic effect
[6]
  % of alpha helix, 50% TFE: 50.68%
[6]; [10]
  % of alpha helix, Phosphate Buffer: 5.02%
[6]; [11]
  R-value, 50% TFE: 0.85

## KKKK-GLRKRLRKFRNKIKEK [CB4-sC18, sC18 conjugate bearing four meta-carborane clusters]
[1]; 1 µM peptide with 100 nM Dau
  Effect on daunorubicin activity at 100 nM Dau: slightly increased
[1]
  Effect on cytotoxicity of Dau (co-incubation): did not alter the cytotoxicity of Dau
[7]
  CMC: 43.45 ± 1.15 µM
[8]
  CF release (leakage) from negatively charged LUVs: highest leakage rate
[3]
  mCherry pDNA transfection (red fluorescent signal): strong red intracellular signals
[4]
  Cellular uptake into HeLa cells, 30 min: highest
[4]; 2 h
  Cellular uptake into HeLa cells, 2 h: internalized the most
[9]
  CF release (leakage) from zwitterionic LUVs: highest leakage rate towards both tested model systems
[6]
  % of alpha helix, 50% TFE: 56.30%
[6]; [10]
  % of alpha helix, Phosphate Buffer: 21.68%
[6]; ratio between the molar ellipticity values at 222 and 208 nm, 20 µM peptide in 10 mM phosphate buffer (pH 7.0)
  R-value, Phosphate Buffer: 0.73
[6]; [11]
  R-value, 50% TFE: 0.98

Source: article PMC8709211, “Improving Membrane Activity and Cargo Delivery Efficacy of a Cell-Penetrating Peptide by Loading with Carboranes” (Pharmaceutics, 2021)
